The record followed here is patent US20250026747A1, “COLIBACTIN DERIVATIVES AND METHODS OF TREATING, AMELIORATING, AND/OR PREVENTING CANCER” (priority 2021, published 2025).

By IC50 is commonly meant the point on the concentration scale where inhibition reaches its midpoint.

Common to all, as to format: cell-based, human
One series deals with FANCD2. Put plainly: Immunofluorescence assay of FANCD2 foci in HeLa cells. The note with it: 4 h treatment, 20 h further culture; for FANCD2 foci formation: 1-100 μM. On the procedure:
(§1) FIGS. 7A-7B evaluates the Colibactin 742 (4) and its linear precursor 9 recapitulate the clb phenotype. […] HeLa cells were treated with the linear precursor 9 (1-100 μM), colibactin 742 (4) (1-100 μM) or MMC (150 nM) for 4 h. The cells were then washed and incubated for 20 h before immunofluorescence imaging. Cells were considered positive when >5 FANCD2 or γH2AX foci formed. Means and standard deviations of results from at least three independent experiments are shown. FIG. 7B depicts the DNA content histograms upon treatment with colibactin 742 (4, 11 μM) or 9 (11 μM) quantification of the sub-population of the histograms.
(§2) The present study then probed the DNA damage response that was activated following exposure to colibactin 742 (4) or its linear precursor 9. In mammalian cells, DNA interstrand cross-links (ICLs) are repaired by the Fanconi anemia pathway, and activation of this pathway is observed when eukaryotic cells are infected with clb^+ bacteria. Upon detection of an ICL, the Fanconi anemia protein D2 (FANCD2) is activated by monoubiquitinylation and recruited to the ICL to coordinate repair. Following initiation of repair, a double-strand break (DSB) is generated, which in turns triggers the formation of phospho-SER139-H2AX (γH2AX) nuclear foci. […] Consequently, the instant study probed for activation of FANCD2 and γH2AX by immunofluorescence imaging in cells treated with 4 or 9. Using conditions that closely mimic the bacterial coinfection experiments, the instant study treated HeLa cells with colibactin 742 (4) (1-100 μM), the linear precursor 9 (1-100 μM), or MMC (150 nM, higher concentrations of MMC reduced cell viability) for 4 h. The cells were then washed and cultured for a further 20 h. […] Thus, the synthetic compounds 4 and 9 induce a similar activation of the eukaryotic DNA damage response as clb^+ E. coli.
(§3) Cells were seeded at a density of 3500 cells per well to achieve total well volumes of 20 μL in 384-well plates (black with an optically clear bottom, Greiner Bio One 781091) using a Thermo Combidrop liquid dispenser. Cells were grown for 24 h, followed by the addition of test compounds using an Echo acoustic liquid handler (Labcyte). For each tested drug concentration, a 20 nL aliquot of the 1000× stock was added to 20 μL of cells to provide a final DMSO concentration of 0.1%. The compounds were incubated for 4 h at concentrations ranging from 1.2 μM to 100 μM in growth medium, at 37° C., 5% CO2. Each plate contained negative vehicle control wells (0.1% DMSO) and positive control wells (0.15 μM Mitomycin C, MMC). After 4 h incubation, the cells were washed once with Dulbecco's Phosphate-buffered solution (DPBS, Life Technologies), then fresh growth medium was added. The cells were incubated for 20 h, fixed, and subjected to immunofluorescence imaging.
(§4) Cells were fixed with 4% paraformaldehyde (PFA) (Electron Microscopy Sciences) in the presence of 0.02% Triton X-100 at room temperature (RT) for 20 min and then incubated in permeabilization/blocking solution [10% FBS and 0.5% Triton X-100 in phosphate-buffered saline (PBS)] at RT for 1 h. Primary antibodies were diluted 1:500 in permeabilization/blocking solution and used to stain cells at 4° C. overnight. […] Cells were imaged using the InCell 2200 Imaging System (GE Corp.) and analyzed using InCell Analyzer software (GE Corp.) to quantify the number of γH2AX and FANCD2 foci. Cells were counted as positive for focus formation when 5 foci/nucleus were detected.

Series [1] can be described thus: Cell viability assay (CellTiter-GLO) in HeLa cells. The note with it: human, 72 h, 24 nM to 100 μM, normalized to tamoxifen 60 μM and DMSO, read-out: half-maximal inhibitory potency (IC50), cytotoxicity. On the procedure:
(§5) FIGS. 12A-12E show the results of the Cell viability assays. Specifically, HeLa cells were incubated with: (FIG. 12A) compound 9; (FIG. 12B) colibactin 742 (4); (FIG. 12C) compound 22; (FIG. 12D) compound 23; or (FIG. 12E) compound 24 at 24 nM-100 μM for 72 h, according some embodiments. The cells were then incubated with CTG reagent and the luminescence was measured. Results were normalized to DMSO control (0.1%, 0% effect) tamoxifen (60 μM, 100% effect). The points are the averages of twelve measurements (triplicates of four). The lines are four parameters logistic regression (4PL) fit. Error bars represent 95% confidence ranges.
(§6) Experiments to determine if the cyclized and linear forms (colibactin 742 (4) and 9, respectively) are cytotoxic were conducted. As discussed above, the timing of the cyclization events that form the colibactin warheads is not known. To probe this, the instant study measured the cytotoxicity of both the linear precursor 9 and colibactin 742 (4) toward human cervical cancer cells (HeLa). The compounds were incubated for 72 h at concentrations ranging from 24 nM to 100 μM. Cell viability was measured using CellTiter GLO assay and normalized to tamoxifen (60 μM, set at 100% effect) and methyl sulfoxide (DMSO, set at 0% effect). […] Additionally, this observation further supports the notion that while the C36-C37 1,2-diketone may dictate colibactin's half-life within the gut, it may not play a critical role in DNA damage.
(§7) Hela cells were grown in Dulbecco's Modified Eagle Medium (DMEM) supplemented with fetal bovine serum (FBS, 10%) and penicillin-streptomycin (0.1%) at 37° C. in a 95% humidity atmosphere under 5% CO2 environment. Cytotoxicity was determined using a CellTiter-GLO Assay. Cells were seeded at a density of 400 cells to achieve total well volumes of 20 μL in 384-well plates (black with an optically clear bottom, Greiner Bio One 781091) using a Thermo Combidrop liquid dispenser and grown for […] at 37° C., 5% CO2. Cells were grown for 24 h, followed by the addition of test compounds using an Echo acoustic liquid handler (Labcyte). For each tested drug concentration, a 20 nL aliquot of the 1000× stock was added to 20 μL of cells to provide a final DMSO concentration of 0.1%. The compounds were incubated for 72 h at concentrations ranging from 24 nM to 100 μM. Each plate contained negative vehicle control wells (0.1% DMSO) and positive control wells (60 μM tamoxifen). After 72 h, the cells were treated with 10 μL CTG reagent. […] The resulting luminescence was measured using a plate reader (Infinite M1000, TECAN Group AG). Biological triplicates, each measured four times (N=12), for each compound were recorded for each concentration and IC50 values were determined using Prism 9 (Graph Pad) fit with a four parameters nonlinear regression.

The next series deals with γH2AX. In words: Immunofluorescence assay of γH2AX foci in HeLa cells. As to conditions: 4 h treatment, 20 h further culture; for number of positive cells for γH2AX foci: 11 μM, positive when >5 foci; for γH2AX foci formation: 1-100 μM. On the procedure:
as §1, §2, §3, §4

In another series the test system is HeLa cells. In words: Cell viability assay (CellTiter-GLO) in HeLa cells. The note with it: 72 h, 24 nM to 100 μM. Here is the method:
as §5, §6, §7
For orientation: In ATP-based viability assays light output follows the ATP content of the culture.

Consider `C[C@H]1CCC(CC(=O)NC2(C(=O)CC(=O)NCC(=O)c3csc(CCc4csc(CNC(=O)CC(=O)C5(NC(=O)CC6=N[C@@H](C)CC6)CC5)n4)n3)CC2)=N1` [compound 9], for which the “number of positive cells for FANCD2 foci” value with FANCD2 (11 μM, positive when >5 foci) was “four-fold increase”. Moreover, in the series on FANCD2 (higher concentrations (>33 μM)), the “cell death and decrease in positive cells at higher concentrations” value was “induced cell death”. Also, in series [1], the concentration for half-maximal inhibition (IC50) is 7.2 ± 1.7 µM. The “number of positive cells for γH2AX foci” value in the series on γH2AX is reported as “four-fold increase”.
Consider `C[C@H]1CCC(C2=C(CC(=O)NCC(=O)c3csc(CCc4csc(CNC(=O)CC5=C(C6=N[C@@H](C)CC6)C(=O)NC5(C)C)n4)n3)C(C)(C)NC2=O)=N1` [compound 22], for which the FANCD2 foci formation entry in the series with FANCD2 is listed as “did not induce”. For the same molecule, in the series on HeLa cells, the cytotoxicity result is “showed no toxicity”. In addition, the γH2AX foci formation result with γH2AX is “did not induce”.
For the molecule `CCOC(=O)c1csc(CNC(=O)CC2=C(C3=N[C@@H](C)CC3)C(=O)NC23CC3)n1` [compound 23, reference compound], the “number of positive cells for FANCD2 foci (with respect to DMSO)” value in the series on FANCD2 (33 μM) is recorded as “three-fold increase”. In series [1], the IC50 stood at 8.4 ± 2.4 µM. In addition, in the series with γH2AX, the “number of positive cells for γH2AX foci” value is on record as “induced significant γH2AX foci formation”. Further, the “number of positive cells for γH2AX foci (with respect to DMSO)” value in the series with γH2AX (33 μM) is “three-fold increase”.
Take `CCOC(=O)c1nc(C2(O)CNC(=O)C2C2=C(C3=N[C@@H](C)CC3)C(=O)NC23CC3)cs1` (some centres unmarked) [compound 24]: in the series on FANCD2, the FANCD2 foci formation result is listed as “did not induce”. For the same molecule, the cytotoxicity result in the series with HeLa cells is recorded as “showed no toxicity”. Besides, in the series with γH2AX, the γH2AX foci formation result is “did not induce”.
